{
  "source": "patent US20240424000A1",
  "about": "“LONG-ACTING INTRA-ARTICULAR DOSAGE FORMS CONTAINING FLUTICASONE PROPIONATE AND USE THEREOF” (Eupraxia Pharmaceuticals Inc., priority 2023, published 2024)",
  "origin": "cited, not measured here",
  "test_system": "cartilage",
  "settings": "IA every 12 weeks for 2 years; McAlindon et al. 2017",
  "data": [
    {"compound": "CC1(C)O[C@@H]2C[C@H]3[C@@H]4CCC5=CC(=O)C=C[C@]5(C)[C@@]4(F)[C@@H](O)C[C@]3(C)[C@]2(C(=O)CO)O1", "note": "[TCA, triamcinolone acetonide]", "values": [
      {"measurement": "effect of chronic exposure on cartilage", "value": "led to increased cartilage loss"}
    ]}
  ]
}
